Data on 26 compounds can be found in ChEMBL document CHEMBL5576144, “Accelerated Discovery of Carbamate Cbl-b Inhibitors Using Generative AI Models and Structure-Based Drug Design” (J Med Chem, 2024).

The nature of data set [1]: Lipophilicity, logD of compound in octanol/aqueous buffer at pH 7.4 incubated for 2 hrs by shake flask method. The data set is classed as physicochemical. The following applies: for logD at 2 h: octanol/aqueous buffer, pH 7.4.
Data set [2] can be described thus: Intrinsic clearance in human liver microsome at 1 uM incubated for 30 mins in presence of NADPH by LC-MS/MS analysis. It is filed as ADME, microsomes. The following applies: for microsomal CLint at 1 µM: liver microsomes, read-out: CLH.
Data set [3] deals with E3 ubiquitin-protein ligase CBL-B (Homo sapiens, UniProt Q13191). The data set is described as follows: Inhibition of Cbl-b (unknown origin) by TR-FRET assay. For orientation: In TR-FRET formats the signal depends on donor and acceptor labels being close together.

SMILES strings stand for the structures.

Chain of E3 ubiquitin-protein ligase CBL-B (Q13191 whole entry): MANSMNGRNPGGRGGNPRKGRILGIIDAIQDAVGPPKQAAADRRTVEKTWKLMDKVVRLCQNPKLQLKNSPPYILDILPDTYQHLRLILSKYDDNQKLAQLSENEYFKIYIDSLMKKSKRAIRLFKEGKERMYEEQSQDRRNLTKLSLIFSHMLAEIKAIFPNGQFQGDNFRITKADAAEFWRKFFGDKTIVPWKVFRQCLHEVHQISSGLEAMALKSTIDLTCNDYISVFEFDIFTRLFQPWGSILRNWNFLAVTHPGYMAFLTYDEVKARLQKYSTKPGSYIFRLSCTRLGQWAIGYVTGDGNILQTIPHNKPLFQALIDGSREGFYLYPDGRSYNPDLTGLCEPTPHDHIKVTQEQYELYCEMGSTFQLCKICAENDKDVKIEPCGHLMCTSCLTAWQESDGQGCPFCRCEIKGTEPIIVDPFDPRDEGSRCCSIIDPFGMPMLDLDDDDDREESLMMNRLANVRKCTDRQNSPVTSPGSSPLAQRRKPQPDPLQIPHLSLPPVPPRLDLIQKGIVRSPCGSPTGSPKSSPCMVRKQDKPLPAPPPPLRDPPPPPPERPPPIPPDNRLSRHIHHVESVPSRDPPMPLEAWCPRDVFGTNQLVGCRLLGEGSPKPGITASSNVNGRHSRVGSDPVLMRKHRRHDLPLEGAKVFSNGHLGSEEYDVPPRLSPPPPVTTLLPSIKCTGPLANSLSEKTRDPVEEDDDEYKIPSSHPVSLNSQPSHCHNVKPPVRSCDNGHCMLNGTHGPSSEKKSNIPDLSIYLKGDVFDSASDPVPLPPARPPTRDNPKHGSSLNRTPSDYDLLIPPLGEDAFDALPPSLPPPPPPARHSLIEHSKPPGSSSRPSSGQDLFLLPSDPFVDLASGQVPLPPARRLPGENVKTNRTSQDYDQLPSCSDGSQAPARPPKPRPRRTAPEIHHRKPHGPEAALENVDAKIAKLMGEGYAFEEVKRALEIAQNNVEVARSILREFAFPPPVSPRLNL

One may read the logD as the decadic logarithm of the distribution of all forms, ionised or not, between an organic phase and buffer at a given pH. High values mean higher lipophilicity, low ones lower lipophilicity. As to `C[C@H]1CCCN(Cc2cc3c(c(C(F)(F)F)c2)CN(c2cccc([C@]4(c5nncn5C)C[C@@H](C)C4)c2)C3=O)C1`, the logD at 2 h in data set [1] was determined as 4. The microsomal CLint at 1 µM in data set [2] amounted to 130 µL/min/mg.
A word on the IC50: it is the concentration that gives 50% inhibition. A low value points to higher potency. `CNC(=O)[C@]1(c2cccc(-n3nc4c(C(F)(F)F)cc(CN5CCC[C@H](C)C5)cn4c3=O)c2)C[C@H](C)C1` returned an IC50 in data set [3] of 6.5 µM. The compound further gave a logD at 2 h in data set [1] of 4.3. In addition, the microsomal CLint at 1 µM in data set [2] was greater than 300 µL/min/mg.
The corresponding values for `O=C1NCC[C@@](c2cccc(-c3cc(C(F)(F)F)c[nH]c3=O)c2)(C2CC2)O1` are 8.2 µM, 2.1 and 35 µL/min/mg.
`C[C@H]1CCCN(Cc2cc(C(F)(F)F)c3nn(-c4cccc([C@@]5(C)CCNC(=O)C5)c4)c(=O)n3c2)C1`: in data set [3], the IC50 is 37 µM. The logD at 2 h in data set [1] was found to be 3.4. The microsomal CLint at 1 µM in data set [2] is 230 µL/min/mg.
With `C[C@H]1CCCN(Cc2cc(C(F)(F)F)c3nn(-c4cccc([C@@]5(C6CC6)CCNC(=O)O5)c4)c(=O)n3c2)C1`, the IC50 in data set [3] was found to be 7.8 µM. Moreover, in data set [1], the logD at 2 h is 3.8. Moreover, the microsomal CLint at 1 µM in data set [2] was greater than 300 µL/min/mg.
The compound `CC[C@]1(c2cccc(NC(=O)c3cc(C)nc(C4CC4)n3)c2)CCNC(=O)O1` showed an IC50 in data set [3] greater than 100 µM. This compound returned a pH-dependent lipophilicity (logD) at 2 h in data set [1] of 2.9. Besides, the microsomal CLint at 1 µM in data set [2] was found to be 54 µL/min/mg.
On to `C[C@H]1CCCN(Cc2cc(C(F)(F)F)c3nn(-c4cccc(C5(C)CC(=O)NC(=O)C5)c4)c(=O)n3c2)C1`, for which, in data set [3], the IC50 amounted to 6.6 µM. In data set [1], this compound came in with a log distribution coefficient (logD) at 2 h of 3.2. The microsomal CLint at 1 µM in data set [2] was greater than 300 µL/min/mg.
Regarding `CC1CC(c2cccc(-n3nc4c(C(F)(F)F)cc(CN5CCC[C@H](C)C5)cn4c3=O)c2)(n2cccn2)C1` (some centres not stated), the IC50 in data set [3] was greater than 10 µM. In addition, the logD at 2 h in data set [1] is 5.3. Besides, the microsomal CLint at 1 µM in data set [2] is greater than 300 µL/min/mg.
With `C[C@H]1CCCN(Cc2cc(C(F)(F)F)c3nn(-c4cccc([C@]5(c6nncn6C)C[C@@H](C)C5)c4)c(=O)n3c2)C1`, in data set [3], 0.011 µM corresponded to half-maximal inhibition (IC50). The compound further displayed a pH-dependent lipophilicity (logD) at 2 h in data set [1] of 3.9. Besides, the microsomal CLint at 1 µM in data set [2] amounted to 160 µL/min/mg.
`C[C@H]1CCCN(Cc2cc(C(F)(F)F)c3nn(-c4cccc([C@]5(C6CC6)CCNC(=O)O5)c4)c(=O)n3c2)C1` registered an IC50 in data set [3] of 0.007 µM. Also, in data set [1], the logD at 2 h came out at 3.7. Moreover, in data set [2], the microsomal CLint at 1 µM stood at 260 µL/min/mg.
In the case of `Cc1cc(C(=O)Nc2cccc([C@]3(C)CCNC(=O)C3)c2)nc(C2CC2)n1`, in data set [3], the IC50 amounted to 28 µM. Moreover, in data set [1], the logD at 2 h was found to be 2.7. The microsomal CLint at 1 µM in data set [2] worked out at 34 µL/min/mg.
As for `Cc1cc(C(=O)Nc2cccc([C@]3(c4nncn4C)C[C@@H](C)C3)c2)nc(C2CC2)n1`, half-maximal inhibition in data set [3] (IC50) required 0.16 µM. For the same compound, the logD at 2 h in data set [1] was found to be 3.2. In addition, the microsomal CLint at 1 µM in data set [2] came out at 35 µL/min/mg.
Take `O=C1NCC[C@](c2cccc(-c3cc(C(F)(F)F)c[nH]c3=O)c2)(C2CC2)O1`: inhibition in data set [3] was half-maximal at 0.091 µM (IC50). For the same compound, the logD at 2 h in data set [1] was 2.2. The microsomal CLint at 1 µM in data set [2] worked out at 18 µL/min/mg.
`Cc1cc(C(=O)Nc2cccc([C@]3(C4CC4)CCNC(=O)O3)c2)nc(C2CC2)n1`: half-maximal inhibition in data set [3] (IC50) was put at 0.17 µM. Moreover, in data set [1], the logD at 2 h came to 3. The microsomal CLint at 1 µM in data set [2] is 25 µL/min/mg.
The corresponding values for `Cc1cc(C(=O)Nc2cccc([C@@]3(C)CCNC(=O)C3)c2)nc(C2CC2)n1` are 33 µM, 2.7 and 23 µL/min/mg.
On to `Cc1cc(C(=O)Nc2cccc([C@@]3(C4CC4)CCNC(=O)O3)c2)nc(C2CC2)n1`, for which, in data set [3], the IC50 is greater than 100 µM. The same compound gave a logD at 2 h in data set [1] of 3. Also, in data set [2], the microsomal CLint at 1 µM is 61 µL/min/mg.
`Cc1cc(C(=O)Nc2cccc([C@@]3(C)CCNC(=O)O3)c2)nc(C2CC2)n1` gave an IC50 in data set [3] greater than 100 µM. The compound further had a logD at 2 h in data set [1] of 2.4. Moreover, in data set [2], the microsomal CLint at 1 µM is 7.7 µL/min/mg.
For `Cc1cc(C(=O)Nc2cccc([C@]3(C)CCNC(=O)O3)c2)nc(C2CC2)n1`, in that order: 4.8 µM, 2.5 and 5.9 µL/min/mg.
Regarding `Cn1cnnc1[C@]1(c2cccc(-n3nc4c(C(F)(F)F)cccn4c3=O)c2)C[C@H](C)C1`, half-maximal inhibition in data set [3] (IC50) required 0.23 µM. The logD at 2 h in data set [1] was 2.7. Also, in data set [2], the microsomal CLint at 1 µM amounted to 48 µL/min/mg.
Take `C[C@H]1CCCN(Cc2cc(C(F)(F)F)c3nn(-c4cccc([C@]5(C)CCNC(=O)C5)c4)c(=O)n3c2)C1`: the IC50 in data set [3] turned out to be 1.2 µM. The compound also displayed a logD at 2 h in data set [1] of 3.5. Besides, in data set [2], the microsomal CLint at 1 µM amounted to 170 µL/min/mg.
In data set [3], `CC[C@@]1(c2cccc(NC(=O)c3cc(C)nc(C4CC4)n3)c2)CCNC(=O)O1` returned a 50% inhibitory concentration (IC50) of 1.4 µM. In data set [1], this compound displayed a logD at 2 h of 3. For the same compound, in data set [2], the microsomal CLint at 1 µM turned out to be 27 µL/min/mg.
On to `C[C@H]1CCCN(Cc2cc(C(F)(F)F)c3nn(-c4cccc([C@]5(C(=O)N(C)C)C[C@@H](C)C5)c4)c(=O)n3c2)C1`, for which half-maximal inhibition in data set [3] (IC50) was put at 2.1 µM. The compound also displayed a logD at 2 h in data set [1] of 4.9. In data set [2], the microsomal CLint at 1 µM is greater than 300 µL/min/mg.
In the case of `Cc1cc(C(=O)Nc2cccc(C3(C)CCNC(=O)N3C)c2)nc(C2CC2)n1` (racemic), in data set [3], the IC50 was greater than 100 µM. The logD at 2 h in data set [1] was 2.7. In data set [2], the microsomal CLint at 1 µM came to 75 µL/min/mg.
For the compound `Cc1cc(C(=O)Nc2cccc(C3(C)CCNC(=O)N3)c2)nc(C2CC2)n1` (racemic), the IC50 in data set [3] was greater than 100 µM. For the same compound, the logD at 2 h in data set [1] worked out at 2.4. Further, the microsomal CLint at 1 µM in data set [2] came out at 6.6 µL/min/mg.
With `Cc1cc(C(=O)Nc2cccc(C3(C)CNC(=O)O3)c2)nc(C2CC2)n1` (single isomer, unassigned; 14), the half-inhibitory concentration (IC50) in data set [3] was greater than 100 µM. For the same compound, the logD at 2 h in data set [1] is 2.7. The microsomal CLint at 1 µM in data set [2] was 16 µL/min/mg.
Take `Cc1cc(C(=O)Nc2cccc(C3(C)CNC(=O)O3)c2)nc(C2CC2)n1` (single isomer, unassigned; 15): in data set [3], the IC50 was greater than 100 µM. Moreover, the logD in data set [1] (octanol/water, pH 7.4, 2 h, 2 h) was found to be 2.6. For the same compound, the CLH in data set [2] (microsomes, 0.5 h, 1 µM) came to 10 µL/min/mg.
